Reference: ChEMBL document CHEMBL5465560, “Selectivity Literature for EUbOPEN Chemogenomic Library” (2024)

Assays:
[1] = biological target: T1, Serine/threonine-protein kinase MAK (Homo sapiens) (UniProt P20794); test: Selectivity interaction (KinomeScan (DiscoverX)) EUB0000666a MAK; conditions: at 10 µM
T1 sequence (whole entry): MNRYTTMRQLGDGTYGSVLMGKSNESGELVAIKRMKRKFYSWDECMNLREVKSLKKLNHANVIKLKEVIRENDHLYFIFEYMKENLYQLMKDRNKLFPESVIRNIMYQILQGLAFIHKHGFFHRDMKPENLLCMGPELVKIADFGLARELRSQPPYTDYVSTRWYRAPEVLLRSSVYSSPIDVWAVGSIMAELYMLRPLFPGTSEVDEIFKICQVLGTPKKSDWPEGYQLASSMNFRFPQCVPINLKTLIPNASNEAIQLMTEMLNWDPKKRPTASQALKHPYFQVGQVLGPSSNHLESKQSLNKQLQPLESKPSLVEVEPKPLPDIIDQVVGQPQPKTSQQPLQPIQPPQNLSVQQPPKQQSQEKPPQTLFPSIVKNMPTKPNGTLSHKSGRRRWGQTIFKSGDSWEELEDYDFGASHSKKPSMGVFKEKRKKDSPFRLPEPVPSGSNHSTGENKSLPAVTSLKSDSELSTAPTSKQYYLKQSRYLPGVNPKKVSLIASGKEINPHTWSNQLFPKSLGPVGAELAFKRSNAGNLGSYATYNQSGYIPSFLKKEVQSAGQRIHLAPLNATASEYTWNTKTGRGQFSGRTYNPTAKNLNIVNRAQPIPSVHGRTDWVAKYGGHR

Ephrin type-A receptor 4 = Ephrin type-A receptor 4 (Homo sapiens, UniProt P54764); test: Selectivity interaction (KinomeScan (DiscoverX)) EUB0000607a EPHA4; conditions: at 10 µM
Sequence of Ephrin type-A receptor 4 (P54764 whole entry): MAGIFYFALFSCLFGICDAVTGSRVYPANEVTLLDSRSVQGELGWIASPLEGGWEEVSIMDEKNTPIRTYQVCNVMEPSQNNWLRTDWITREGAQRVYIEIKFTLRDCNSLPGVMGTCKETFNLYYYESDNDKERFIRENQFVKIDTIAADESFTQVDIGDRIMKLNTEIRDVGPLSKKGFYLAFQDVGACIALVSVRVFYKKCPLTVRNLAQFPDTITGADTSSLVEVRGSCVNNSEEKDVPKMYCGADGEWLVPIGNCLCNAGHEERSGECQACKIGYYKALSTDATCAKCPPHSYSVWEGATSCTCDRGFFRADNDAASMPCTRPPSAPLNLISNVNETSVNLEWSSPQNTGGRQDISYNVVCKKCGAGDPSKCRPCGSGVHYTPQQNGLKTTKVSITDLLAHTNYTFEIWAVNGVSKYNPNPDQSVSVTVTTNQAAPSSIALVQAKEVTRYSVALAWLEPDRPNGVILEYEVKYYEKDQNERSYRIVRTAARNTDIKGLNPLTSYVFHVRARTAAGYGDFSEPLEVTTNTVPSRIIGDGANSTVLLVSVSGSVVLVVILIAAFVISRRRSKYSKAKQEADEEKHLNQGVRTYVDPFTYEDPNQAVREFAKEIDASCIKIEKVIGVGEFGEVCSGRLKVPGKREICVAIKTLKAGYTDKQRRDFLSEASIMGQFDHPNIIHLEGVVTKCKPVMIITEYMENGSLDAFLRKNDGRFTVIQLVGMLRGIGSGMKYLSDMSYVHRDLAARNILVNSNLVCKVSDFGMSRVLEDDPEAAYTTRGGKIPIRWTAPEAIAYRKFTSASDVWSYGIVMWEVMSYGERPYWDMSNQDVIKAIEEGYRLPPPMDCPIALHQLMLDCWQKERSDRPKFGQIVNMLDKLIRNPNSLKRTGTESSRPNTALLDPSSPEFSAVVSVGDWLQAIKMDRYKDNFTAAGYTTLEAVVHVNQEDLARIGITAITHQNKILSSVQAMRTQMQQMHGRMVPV

[2] = biological target: T2, Ephrin type-B receptor 4 (Homo sapiens) (UniProt P54760); test: Selectivity interaction (Upstate Kinase Profiler service (Millipore)) EUB0000056c EPHB4; conditions: at 1 µM
T2 sequence (whole entry): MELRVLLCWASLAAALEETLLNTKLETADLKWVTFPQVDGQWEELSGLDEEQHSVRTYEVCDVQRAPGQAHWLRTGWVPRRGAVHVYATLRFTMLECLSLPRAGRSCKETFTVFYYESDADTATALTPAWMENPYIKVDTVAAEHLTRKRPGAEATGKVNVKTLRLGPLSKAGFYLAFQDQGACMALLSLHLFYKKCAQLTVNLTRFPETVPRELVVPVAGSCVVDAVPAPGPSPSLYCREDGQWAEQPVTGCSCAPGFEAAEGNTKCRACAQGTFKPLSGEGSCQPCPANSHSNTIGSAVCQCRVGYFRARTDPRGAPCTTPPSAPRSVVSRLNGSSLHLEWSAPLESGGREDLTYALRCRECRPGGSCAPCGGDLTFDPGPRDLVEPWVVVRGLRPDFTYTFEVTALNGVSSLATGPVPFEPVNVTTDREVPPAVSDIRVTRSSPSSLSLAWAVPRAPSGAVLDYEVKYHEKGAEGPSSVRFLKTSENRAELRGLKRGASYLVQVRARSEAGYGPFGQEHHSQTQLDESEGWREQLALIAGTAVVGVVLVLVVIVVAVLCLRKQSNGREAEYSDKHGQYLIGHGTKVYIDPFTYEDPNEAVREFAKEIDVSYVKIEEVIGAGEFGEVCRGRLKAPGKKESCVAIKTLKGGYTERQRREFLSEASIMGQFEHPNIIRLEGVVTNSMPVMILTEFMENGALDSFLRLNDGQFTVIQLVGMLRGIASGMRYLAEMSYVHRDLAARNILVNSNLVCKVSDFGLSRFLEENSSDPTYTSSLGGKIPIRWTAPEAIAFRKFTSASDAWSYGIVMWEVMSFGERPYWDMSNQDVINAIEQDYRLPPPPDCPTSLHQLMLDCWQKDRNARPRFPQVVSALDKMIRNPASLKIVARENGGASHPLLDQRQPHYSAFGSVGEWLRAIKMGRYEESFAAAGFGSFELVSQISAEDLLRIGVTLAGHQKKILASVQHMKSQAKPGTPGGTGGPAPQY

[3] = biological target: Ribosomal protein S6 kinase alpha-4 (Homo sapiens) (UniProt O75676); conditions: at 10 µM
Sequence of Ribosomal protein S6 kinase alpha-4 (Homo sapiens) (O75676 whole entry, looked up): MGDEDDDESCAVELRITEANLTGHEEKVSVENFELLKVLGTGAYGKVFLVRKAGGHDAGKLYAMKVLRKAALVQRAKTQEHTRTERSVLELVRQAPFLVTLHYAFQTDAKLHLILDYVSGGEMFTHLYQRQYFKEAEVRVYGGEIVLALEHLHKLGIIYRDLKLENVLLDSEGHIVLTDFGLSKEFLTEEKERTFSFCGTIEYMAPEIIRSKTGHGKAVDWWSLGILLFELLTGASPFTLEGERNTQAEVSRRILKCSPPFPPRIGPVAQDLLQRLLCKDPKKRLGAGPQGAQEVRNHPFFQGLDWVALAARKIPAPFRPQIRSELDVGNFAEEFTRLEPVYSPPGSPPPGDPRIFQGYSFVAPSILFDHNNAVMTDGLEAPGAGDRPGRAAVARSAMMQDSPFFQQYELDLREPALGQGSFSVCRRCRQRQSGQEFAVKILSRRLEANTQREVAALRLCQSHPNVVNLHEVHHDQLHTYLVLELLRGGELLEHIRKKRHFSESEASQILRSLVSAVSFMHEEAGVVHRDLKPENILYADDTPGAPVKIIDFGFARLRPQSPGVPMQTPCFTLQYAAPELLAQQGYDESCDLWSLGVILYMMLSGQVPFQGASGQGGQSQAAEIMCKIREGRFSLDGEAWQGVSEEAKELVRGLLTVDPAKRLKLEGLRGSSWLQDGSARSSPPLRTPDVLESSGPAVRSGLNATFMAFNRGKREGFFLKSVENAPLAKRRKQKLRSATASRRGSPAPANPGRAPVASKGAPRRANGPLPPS

[4] = biological target: T3, Alpha-2A adrenergic receptor (Homo sapiens) (UniProt P08913); test: Selectivity interaction (Panel of non-epigenetic targets (kinases, GPCRs, ion channels, and transporters, Eurofins) ) EUB0000271b ADRA2A; conditions: at 1 µM
T3 sequence (whole entry): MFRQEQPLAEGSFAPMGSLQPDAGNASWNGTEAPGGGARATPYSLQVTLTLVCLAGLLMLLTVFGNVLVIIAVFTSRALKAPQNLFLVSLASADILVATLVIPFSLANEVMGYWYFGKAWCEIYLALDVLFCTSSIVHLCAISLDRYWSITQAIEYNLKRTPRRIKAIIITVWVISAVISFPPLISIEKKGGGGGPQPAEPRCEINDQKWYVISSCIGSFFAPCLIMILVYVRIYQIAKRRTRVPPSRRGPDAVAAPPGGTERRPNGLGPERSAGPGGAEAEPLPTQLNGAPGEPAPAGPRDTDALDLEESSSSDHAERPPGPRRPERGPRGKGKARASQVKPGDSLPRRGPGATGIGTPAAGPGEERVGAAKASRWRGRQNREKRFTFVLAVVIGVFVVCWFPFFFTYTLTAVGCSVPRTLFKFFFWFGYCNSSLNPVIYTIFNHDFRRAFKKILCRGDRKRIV

[5] = Selectivity interaction (KinomeScan (DiscoverX)) EUB0001049a PKNB; conditions: at 1 µM
[6] = biological target: Ribosomal protein S6 kinase alpha-1 (Homo sapiens, UniProt Q15418); test: Selectivity interaction (Kinase screening (Nanosyn)) EUB0000604a RPS6KA1
Sequence of Ribosomal protein S6 kinase alpha-1 (Q15418 whole entry): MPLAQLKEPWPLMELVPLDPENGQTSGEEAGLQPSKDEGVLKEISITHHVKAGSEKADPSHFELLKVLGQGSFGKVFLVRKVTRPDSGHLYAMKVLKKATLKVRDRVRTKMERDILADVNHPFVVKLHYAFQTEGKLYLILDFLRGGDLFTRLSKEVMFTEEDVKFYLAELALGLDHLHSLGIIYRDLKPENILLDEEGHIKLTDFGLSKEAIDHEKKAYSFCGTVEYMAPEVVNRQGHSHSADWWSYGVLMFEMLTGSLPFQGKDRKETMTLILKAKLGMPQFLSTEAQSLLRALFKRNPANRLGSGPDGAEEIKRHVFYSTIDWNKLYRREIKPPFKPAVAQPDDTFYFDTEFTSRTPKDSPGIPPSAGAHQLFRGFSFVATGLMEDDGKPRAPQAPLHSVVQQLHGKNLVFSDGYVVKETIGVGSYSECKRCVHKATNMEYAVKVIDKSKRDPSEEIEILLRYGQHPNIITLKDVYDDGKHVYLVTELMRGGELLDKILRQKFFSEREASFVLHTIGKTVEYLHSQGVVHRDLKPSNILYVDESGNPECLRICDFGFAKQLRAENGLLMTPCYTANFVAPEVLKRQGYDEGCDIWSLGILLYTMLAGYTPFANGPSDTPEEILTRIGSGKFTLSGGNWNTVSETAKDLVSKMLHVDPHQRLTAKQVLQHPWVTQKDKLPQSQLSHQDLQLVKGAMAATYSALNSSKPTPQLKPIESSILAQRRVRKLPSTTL

[7] = biological target: Proto-oncogene tyrosine-protein kinase ROS (Homo sapiens) (UniProt P08922); test: Selectivity interaction (KinomeScan (DiscoverX)) EUB0000092b ROS1; conditions: at 10 µM
[8] = biological target: T4, Aurora kinase C (Homo sapiens) (UniProt Q9UQB9); conditions: at 10 µM
T4 sequence (whole entry): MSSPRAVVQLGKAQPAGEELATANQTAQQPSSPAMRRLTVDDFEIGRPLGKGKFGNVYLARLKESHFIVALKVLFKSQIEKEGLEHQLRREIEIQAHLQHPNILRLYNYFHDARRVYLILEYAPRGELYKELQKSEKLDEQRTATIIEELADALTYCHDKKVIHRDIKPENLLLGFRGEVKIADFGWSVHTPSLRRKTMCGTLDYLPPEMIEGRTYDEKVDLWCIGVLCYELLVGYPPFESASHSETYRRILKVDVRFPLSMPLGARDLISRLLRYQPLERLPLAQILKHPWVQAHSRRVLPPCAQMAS

[9] = biological target: BMP-2-inducible protein kinase (Homo sapiens) (UniProt Q9NSY1); conditions: at 10 µM
[10] = biological target: Rho-associated protein kinase 2 (Homo sapiens, UniProt O75116); test: Selectivity interaction (KinomeScan (DiscoverX)) EUB0000618a ROCK2; conditions: at 10 µM
Sequence of Rho-associated protein kinase 2 (O75116 whole entry, looked up): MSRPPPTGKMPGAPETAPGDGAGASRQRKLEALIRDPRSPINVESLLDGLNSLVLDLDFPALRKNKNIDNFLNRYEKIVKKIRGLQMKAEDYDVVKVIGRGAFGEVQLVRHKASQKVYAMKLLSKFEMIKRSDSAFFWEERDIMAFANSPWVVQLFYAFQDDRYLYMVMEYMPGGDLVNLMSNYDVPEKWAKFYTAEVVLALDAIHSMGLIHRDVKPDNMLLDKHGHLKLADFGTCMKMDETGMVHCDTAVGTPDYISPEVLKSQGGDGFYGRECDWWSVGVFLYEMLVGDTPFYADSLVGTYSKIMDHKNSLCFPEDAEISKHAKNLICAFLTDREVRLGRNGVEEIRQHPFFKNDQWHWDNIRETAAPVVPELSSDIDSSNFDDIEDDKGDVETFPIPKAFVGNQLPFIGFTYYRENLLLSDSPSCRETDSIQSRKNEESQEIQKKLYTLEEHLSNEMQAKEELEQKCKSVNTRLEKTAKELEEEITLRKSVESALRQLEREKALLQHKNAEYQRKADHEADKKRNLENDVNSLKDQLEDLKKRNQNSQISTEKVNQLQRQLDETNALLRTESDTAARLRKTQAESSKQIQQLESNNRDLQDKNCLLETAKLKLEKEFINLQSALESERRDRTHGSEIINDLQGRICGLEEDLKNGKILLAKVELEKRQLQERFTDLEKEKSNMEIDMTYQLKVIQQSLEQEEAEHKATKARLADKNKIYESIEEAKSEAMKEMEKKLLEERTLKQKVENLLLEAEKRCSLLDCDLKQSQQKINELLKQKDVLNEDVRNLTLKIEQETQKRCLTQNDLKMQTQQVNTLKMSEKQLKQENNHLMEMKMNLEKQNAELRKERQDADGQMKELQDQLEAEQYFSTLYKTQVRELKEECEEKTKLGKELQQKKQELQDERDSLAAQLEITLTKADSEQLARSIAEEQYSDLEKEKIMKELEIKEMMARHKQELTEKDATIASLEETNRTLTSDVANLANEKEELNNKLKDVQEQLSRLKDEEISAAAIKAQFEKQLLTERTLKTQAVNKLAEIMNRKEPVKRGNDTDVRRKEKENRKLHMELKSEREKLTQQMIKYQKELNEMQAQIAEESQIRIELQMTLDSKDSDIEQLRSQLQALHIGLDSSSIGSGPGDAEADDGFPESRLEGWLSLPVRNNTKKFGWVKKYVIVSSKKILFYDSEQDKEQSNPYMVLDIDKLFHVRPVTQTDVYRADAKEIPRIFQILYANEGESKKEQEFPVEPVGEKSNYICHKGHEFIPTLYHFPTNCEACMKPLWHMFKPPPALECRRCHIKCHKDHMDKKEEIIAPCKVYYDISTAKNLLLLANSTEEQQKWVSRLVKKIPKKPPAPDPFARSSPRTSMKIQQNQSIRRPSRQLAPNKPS

[11] = biological target: Serine/threonine-protein kinase 24 (Homo sapiens) (UniProt Q9Y6E0); test: Selectivity interaction (KinomeScan (DiscoverX)) EUB0001619a STK24; conditions: at 1 µM
Sequence of Serine/threonine-protein kinase 24 (Homo sapiens) (Q9Y6E0 whole entry, looked up): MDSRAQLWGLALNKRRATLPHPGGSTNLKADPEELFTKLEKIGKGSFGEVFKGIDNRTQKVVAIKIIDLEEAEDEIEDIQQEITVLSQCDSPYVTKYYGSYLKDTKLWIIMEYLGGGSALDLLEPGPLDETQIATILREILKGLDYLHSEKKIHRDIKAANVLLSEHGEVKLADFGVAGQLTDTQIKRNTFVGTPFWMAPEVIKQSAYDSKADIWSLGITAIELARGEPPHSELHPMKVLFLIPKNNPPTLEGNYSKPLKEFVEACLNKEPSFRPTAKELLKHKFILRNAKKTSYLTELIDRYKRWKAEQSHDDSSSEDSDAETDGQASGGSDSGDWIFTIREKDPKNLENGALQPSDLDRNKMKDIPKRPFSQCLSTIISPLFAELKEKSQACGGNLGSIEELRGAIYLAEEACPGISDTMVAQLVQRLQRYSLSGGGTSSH

Compound: O=C(NOC[C@H](O)CO)c1ccc(F)c(F)c1Nc1ccc(I)cc1F
- % of control [1]: 100%

Compound: CNC(=O)Nc1ccc(-c2nc(N3CC4CCC(C3)O4)c3cnn(C4CCC5(CC4)OCCO5)c3n2)cc1
- % of control (Ephrin type-A receptor 4): 100%

Compound: Cc1ccc(-c2ccc3c(ccc4sc5c(c43)NC[C@@H](C)NC5=O)n2)cn1
- % of inhibition [2]: -11%

Compound: CCN(CC)CCCCNc1ncc2cc(-c3cc(OC)cc(OC)c3)c(NC(=O)NC(C)(C)C)nc2n1
- % of control [3]: 100%

Compound: Cc1cc(C)cc([C@@H]2c3cc(C)ccc3NC(=O)CN2C(=O)c2ccc(Br)s2)c1
- % of inhibition [4]: -8%

Compound: COc1cc(Nc2nc(C)cc(-c3cnn4nc(OC)ccc34)n2)cc(C(F)(F)F)c1
- % of control [5]: 71%

Compound: Cc1cnc(Nc2ccc(F)cc2Cl)nc1-c1c[nH]c(C(=O)N[C@H](CO)c2cccc(Cl)c2)c1
- % of inhibition [6]: 4%

Compound: CCC(=O)N1CCN(c2ccc(-n3c(=O)ccc4cnc5ccc(-c6cnc7ccccc7c6)cc5c43)cc2C(F)(F)F)CC1
- % of control [7]: 71%

Compound: Cc1cc([C@@H](C)Nc2ccccc2C(=O)O)c2nc(N3CCOCC3)cc(=O)n2c1 [AZD-6482]
- % of control [8]: 93%
- % of control [9]: 94%

Compound: O[C@H]1CC[C@H](Nc2ncc3nc(Nc4c(F)cc(F)cc4F)n([C@H]4CCOC4)c3n2)CC1
- % of control [10]: 100%

Compound: N#Cc1cccc(-c2c[nH]c3ncnc(N4CCOCC4)c23)c1
- % of control [11]: 60%
